Measured values as given in article PMC10084752, “Heterologous Expression of the Hot Pepper ABA 8’-Hydroxylase in Escherichia coli for Phaseic Acid Production” (Journal of Microbiology and Biotechnology, 2023).

Target: T1, CaCYP707A2 (Capsicum annuum, UniProt X2C029)
T1 construct: gene CYP707A70; full-length, no N-terminal modification; pCW ori(+) in E. coli Rosetta (DE3) pLysS; 54 kDa
T1 sequence (X2C029 1-477): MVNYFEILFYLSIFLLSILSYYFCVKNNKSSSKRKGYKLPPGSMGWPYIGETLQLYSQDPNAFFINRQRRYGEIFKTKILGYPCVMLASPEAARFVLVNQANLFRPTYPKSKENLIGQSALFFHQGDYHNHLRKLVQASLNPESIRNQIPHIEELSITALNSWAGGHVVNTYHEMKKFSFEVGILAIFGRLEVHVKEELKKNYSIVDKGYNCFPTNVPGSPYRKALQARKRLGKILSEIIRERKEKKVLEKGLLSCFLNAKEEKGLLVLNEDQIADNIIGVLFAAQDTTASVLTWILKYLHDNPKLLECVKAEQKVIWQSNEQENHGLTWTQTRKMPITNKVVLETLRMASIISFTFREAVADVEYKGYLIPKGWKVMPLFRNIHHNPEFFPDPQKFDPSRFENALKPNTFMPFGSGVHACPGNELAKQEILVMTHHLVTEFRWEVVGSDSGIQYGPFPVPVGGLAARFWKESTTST
Assay: spectral binding titration (type I UV-visible difference spectrum)

Kd: 5.8 ± 0.93 µM
SMILES: CC1=CC(=O)CC(C)(C)C1(O)/C=C/C(C)=C\C(=O)O (stereo in doubt) [(+)-ABA]
